Results as given in the NIST ThermoML archive (doi:10.1021/je100362p).

Tests used:
[1] = xn = mol fraction of the nth substance listed; settings: 101 kPa, Liquid; for speed of sound: Sing-around technique in a fixed-path interferometer
[2] = refractive index (Na D-line) (dimensionless); xn = mol fraction of the nth substance listed; settings: 101 kPa, Liquid, Standard Abbe refractometry

Cc1cccc(O)c1 [3-methylphenol] + CCCCCCCCCCO
Settings | mass density, 298.15 K [kg/m3] | mass density, 303.15 K [kg/m3] | mass density, 308.15 K [kg/m3] | refractive index, 298.15 K | refractive index, 303.15 K | refractive index, 308.15 K | speed of sound, 298.15 K [m/s] | speed of sound, 303.15 K [m/s] | speed of sound, 308.15 K [m/s]
[1], x1 = 0.0818 | 836.406 | 832.948 | 829.481 | – | – | – | 1384.4 | 1367.3 | 1350.5
[1], x1 = 0.1443 | 844.417 | 840.933 | 837.44 | – | – | – | 1388.1 | 1371 | 1354.3
[1], x1 = 0.2191 | 854.601 | 851.084 | 847.557 | – | – | – | 1392.5 | 1375.5 | 1358.6
[1], x1 = 0.27 | 861.935 | 858.394 | 854.842 | – | – | – | 1395.7 | 1378.5 | 1361.8
[1], x1 = 0.3513 | 874.407 | 870.825 | 867.235 | – | – | – | 1400.5 | 1383.7 | 1366.8
[1], x1 = 0.4154 | 884.964 | 881.35 | 877.727 | – | – | – | 1404.8 | 1388 | 1371.2
[1], x1 = 0.4864 | 897.533 | 893.881 | 890.219 | – | – | – | 1410.1 | 1393.4 | 1376.6
[1], x1 = 0.5447 | 908.582 | 904.899 | 901.205 | – | – | – | 1415.1 | 1398.3 | 1381.5
[1], x1 = 0.6205 | 924.111 | 920.384 | 916.647 | – | – | – | 1422.3 | 1405.6 | 1388.9
[1], x1 = 0.6951 | 940.809 | 937.04 | 933.259 | – | – | – | 1430.7 | 1414 | 1397.5
[1], x1 = 0.7472 | 953.452 | 949.651 | 945.837 | – | – | – | 1437.2 | 1420.7 | 1404.4
[1], x1 = 0.8163 | 971.635 | 967.793 | 963.936 | – | – | – | 1447.3 | 1431.1 | 1414.8
[1], x1 = 0.8738 | 988.185 | 984.309 | 980.414 | – | – | – | 1457.3 | 1441 | 1424.9
[1], x1 = 0.9325 | 1006.6 | 1002.69 | 998.753 | – | – | – | 1468.8 | 1452.8 | 1436.8
[1], x1 = 1 | 1030.05 | 1026.09 | 1022.12 | – | – | – | 1480.9 | 1465.2 | 1449.6
[2], x1 = 0.0818 | – | – | – | 1.43899 | 1.43686 | 1.43464 | – | – | –
[2], x1 = 0.1443 | – | – | – | 1.44269 | 1.44048 | 1.43816 | – | – | –
[2], x1 = 0.2191 | – | – | – | 1.44749 | 1.44514 | 1.44269 | – | – | –
[2], x1 = 0.27 | – | – | – | 1.45104 | 1.44858 | 1.44602 | – | – | –
[2], x1 = 0.3513 | – | – | – | 1.45712 | 1.45453 | 1.45183 | – | – | –
[2], x1 = 0.4154 | – | – | – | 1.46234 | 1.45965 | 1.45687 | – | – | –
[2], x1 = 0.4864 | – | – | – | 1.46869 | 1.46584 | 1.46299 | – | – | –
[2], x1 = 0.5447 | – | – | – | 1.47429 | 1.47138 | 1.46848 | – | – | –
[2], x1 = 0.6205 | – | – | – | 1.48226 | 1.47932 | 1.47636 | – | – | –
[2], x1 = 0.6951 | – | – | – | 1.49092 | 1.48799 | 1.48499 | – | – | –
[2], x1 = 0.7472 | – | – | – | 1.49755 | 1.49459 | 1.49161 | – | – | –
[2], x1 = 0.8163 | – | – | – | 1.50709 | 1.50419 | 1.50126 | – | – | –
[2], x1 = 0.8738 | – | – | – | 1.51581 | 1.51296 | 1.51007 | – | – | –
[2], x1 = 0.9325 | – | – | – | 1.5256 | 1.52274 | 1.51982 | – | – | –
[2], x1 = 1 | – | – | – | 1.538 | 1.535 | 1.532 | – | – | –
